# Source: ChEMBL document CHEMBL1130813, “Novel euglycemic and hypolipidemic agents: Part-2. Antioxidant moiety as structural motif” (1998)
# Calls of active or inactive are those of the source. The rule behind the calls is not given here.
# Experiments:
# Mus musculus [1] = assay: Percent reduction in plasma triglyceride level was evaluated in mice at a dose of 200 mg/kg/day p.o. for 9 days; assay type: functional; conditions: route oral
# Mus musculus [2] = assay: Percent reduction in plasma blood glucose level was evaluated in mice at a dose of 200 mg/kg/day p.o. for 9 days; assay type: functional; conditions: route oral
# Mus musculus [3] = assay: Percent reduction in plasma triglyceride level was evaluated in mice at a dose of 200 mg/kg/day p.o. for 9 days; not applicable; assay type: functional, organism-based
SMILES,Reduction (Mus musculus [1]) [%],Reduction (Mus musculus [2]) [%],Reduction (Mus musculus [3])
CCN(CCOc1ccc(/C=C2\SC(=O)NC2=O)cc1)CC1(C)CCc2c(C)c(O)c(C)c(C)c2O1 (stereo not given),76,2,–
CS(=O)(=O)O.Cc1c(C)c2c(c(C)c1O)CCC(C)(CN(C)CCOc1ccc(/C=C3\SC(=O)NC3=O)cc1)O2 (stereo not given),70,20,–
Cc1c(C)c2c(c(C)c1O)C(CN(C)CCOc1ccc(/C=C3\SC(=O)NC3=O)cc1)C(C)(C)O2.O=C(O)/C=C\C(=O)O (stereo not given),33,35,–
Cc1c(C)c2c(c(C)c1OCc1ccccc1)C(CN(C)CCOc1ccc(/C=C3\SC(=O)NC3=O)cc1)C(C)(C)O2 (stereo not given),–,23,inactive
Cc1c(C)c2c(c(C)c1O)CCC(C)(CNCCOc1ccc(/C=C3\SC(=O)NC3=O)cc1)O2 (stereo not given),29,6,–
Cc1c(C)c2c(c(C)c1O)CCC(C)(CN(C)CCOc1ccc(/C=C3\SC(=O)NC3=O)cc1)O2.Cl (stereo not given),30,31,–
Cc1c(C)c2c(c(C)c1O)CCC(C)(CN(C)CCOc1ccc(CC3SC(=O)NC3=O)cc1)O2 (stereo not given),–,4,inactive
Cc1c(C)c2c(c(C)c1O)CCC(C)(CN(C)CCOc1ccc(/C=C3\SC(=O)NC3=O)cc1)O2.O=C(O)/C=C\C(=O)O (stereo not given),60,20,–
Cc1c(C)c2c(c(C)c1O)C(COc1ccc(CC3SC(=O)NC3=O)cc1)C(C)(C)O2 (stereo not given),40,19,–
Cc1c(C)c2c(c(C)c1O)C(CN(C)CCOc1ccc(/C=C3\SC(=O)NC3=O)cc1)C(C)(C)O2 (stereo not given),71,46,–
Cc1c(C)c2c(c(C)c1OCc1ccccc1)CCC(C)(CN(C)CCOc1ccc(/C=C3\SC(=O)NC3=O)cc1)O2 (stereo not given),32,39,–
CC(=O)O.Cc1c(C)c2c(c(C)c1O)CCC(C)(CN(C)CCOc1ccc(/C=C3\SC(=O)NC3=O)cc1)O2 (stereo not given),31,11,–
Cc1c(C)c2c(c(C)c1O)CCC(C)(COc1ccc(CC3SC(=O)NC3=O)cc1)O2 (stereo not given) [TROGLITAZONE],50,24,–
Cc1c(C)c2c(c(C)c1O)CCC(C)(CN(C)CCOc1ccc(/C=C3\SC(=O)NC3=O)cc1)O2 (stereo not given),70,43,–
Cc1c(C)c2c(c(C)c1O)C(CN(C)CCOc1ccc(CC3SC(=O)NC3=O)cc1)C(C)(C)O2 (stereo not given),33,17,–
